This is an account of results in paper PMC9786614, “Nerve Targeting via Myelin Protein Zero and the Impact of Dimerization on Binding Affinity” (Molecules, 2022).

This assay deals with T1, myelin protein zero (P0) (Rattus norvegicus, UniProt P06907).
T1 construct: RT4-D12 Schwannoma cells were selected for in vitro experiments based on their origin and their specific P0-expressing properties; endogenous in cells; host or cells: RT4-D12 Schwannoma cells
T1 sequence (P06907 30-248): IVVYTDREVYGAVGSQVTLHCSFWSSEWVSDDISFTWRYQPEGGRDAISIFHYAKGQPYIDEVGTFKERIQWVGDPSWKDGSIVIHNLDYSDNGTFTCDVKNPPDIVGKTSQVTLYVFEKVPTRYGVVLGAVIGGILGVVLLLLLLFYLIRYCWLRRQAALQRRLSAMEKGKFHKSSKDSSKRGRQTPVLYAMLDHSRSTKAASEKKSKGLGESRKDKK
In words: Saturation binding by flow cytometry on P0-expressing Schwannoma cells. The method, then:
RT4-D12 Schwannoma cells were selected for in vitro experiments based on their origin and their specific P0-expressing properties.
All chemicals were received from Actu-All Chemical (Oss, The Netherlands), Sigma Aldrich (St. Louis, MO, USA), Tokyo Chemical Industry (Tokyo, Japan), Biosolve BV (Valkenswaard, The Netherlands), VWR Chemicals (Solon, OH, USA) and used without further purification. DMF and DMSO were dried over four Å molecular sieves at least for 24 h prior to use. Preparative high-pressure liquid chromatography (prep-HPLC) was performed on a Waters HPLC system (Waters Chromatography B.V., Etten-Leur, The Netherlands) using a 2545 quaternary gradient module pump and a 2489 UV detector. Dr. Maisch ReproSil-Pur 120 C18-AQ 10 μM (250 mm × 20 mm) column (Dr. Maisch HPLC GmbH, Ammerbuch-Entringen, Germany) was applied operating flow rate of 12 mL/min. HPLC analysis was carried out on Waters Alliance 2690 using a Waters symmetry C18 column (2.1 × 150 mm) with a gradient of 0.1% TFA in H2O/MeCN 95:5 to 0.1% TFA in H2O/MeCN 5:95 in 17 min (0.3 mL/min). Mass spectrometry was performed on a Microflex LT/SH MALDI-TOF mass spectrometer (Bruker, Billerica, MA, USA). Lyophilization was performed with a VaCo 2-II lyophilizer (Zirbus technology GmbH, Bad Grund (Harz), Germany). Absorption spectrometry was performed using a UV1280 UV–vis spectrometer (Shimadzu, Kyoto, Japan), and fluorescence spectrometry was performed using an LS55 (Perkin Elmer, Waltham, MA, USA). The fluorescence spectra at different temperatures were measured on an Agilent Cary Eclipse (Agilent Cary Eclipse, Santa Clara, CA, USA). NMR spectra were measured on a Bruker Avance 300 (Bruker, Billerica, MA, USA) operating at 300 MHz for 1 H and 75.00 MHz for 13 C, using the residual solvents (CDCl3 and DMSO-d6) as internal references, and on a Bruker Advance III spectrometer operating at 600 MHz for 1H and equipped with a 2.5 mm PH SEI probe (Bruker, Billerica, MA, USA). For photostability, a prototype D-Light P surgical laparoscope (KARL STORZ, Tuttlingen, Germany) was used. Fluorescence confocal imaging was performed using a SP8 WLL confocal microscope (Leica Microsystems, Wetzlar, Germany). Obtained images were analyzed using Leica Confocal Software (Leica Microsystems). Mean fluorescence intensity values per sample were measured using a LSRII flow cytometer (BD Biosciences, Franklin Lakes, NJ, USA) with APC-A settings (635 nm laser and 750 nm long-pass filter). The binding constant (KD) of the normalized geometric means were fitted with equations in the Prism 5 software (GraphPad, San Diego, CA, USA). Statistical evaluation (Student’s t-test) for all properties was performed in the Prism 5 software. […]
Flow cytometric analysis was performed using RT4-D12 Schwannoma cells after incubation with either Cy5-P0_101–125 or Cy5-(P0_101–125)2. […] Cells were gated on Forward Scatter and Side Scatter, and a minimum of 10,000 viable cells were analyzed per sample. […]
For evaluation of the differences in signal intensity per concentration between Cy5-P0_101–125 and Cy5-(P0_101–125)2 (5–1000 nM), the mean signal intensity of Cy5-P0_101–125 at 1000nM was set at 100%, and intensities measured at other tracer concentrations or for Cy5-(P0_101–125)2 were calculated as % increase or decrease from this point. The KD values of the evaluated peptides were calculated using the “Binding-Saturation, One site—Total” nonlinear regression equation, as described previously.

Starred links: 1 amine or outer side, 2 acyl side, 3 side chain; linkers in the order of their positions; H or OH if unused. Positions of bridges follow the written chain, without caps; N, C: chain ends. Chains are numbered I, II in the order given. X1 = CC1(C)C(/C=C/C=C/C=C2/N(CCCCCC(=O)NCCN3C(=O)CC([*:1])C3=O)c3ccc(S(=O)(=O)O)cc3C2(C)C)=[N+](CCCCCC(=O)NCCN2C(=O)CC([*:2])C2=O)c2ccc(S(=O)(=O)[O-])cc21

Regarding “I: Ac-KNPPDIVGKTSQVTLYVFEKVPTRYC-NH2 / II: Ac-KNPPDIVGKTSQVTLYVFEKVPTRYC-NH2 (linker I:26-II:26 via X1) [Cy5-(P0_101–125)2]”, the “fold increase in affinity compared to Cy5-P0_101–125” value (from KD values, p = 0.003) was 1.5 fold. Where the note is “saturation binding fit, flow cytometry, RT4-D12 cells”, this substance gave a Nonspecific binding of 0.022. Besides, the Kd (saturation binding, flow cytometry, RT4-D12 Schwannoma cells, 0–2000 nM tracer in 0.1% BSA in PBS, 1 h at 4 °C, triplicate, One site—Total fit) was 70.3 nM.
